A short description of data set [1]: Decomposition tests: accelerated ageing with GIS materials. It counts as physicochemical. Conditions: aged at 100° C. with Cu/Al plates, EPDM sealings, zeolites, SiO2, paints, grease, nitrile-butadiene rubber; analysed after 8 weeks of exposure. As to the method:
In order to assess the material compatibility of octafluoro-2-butene towards material typically used in a GIS, the following components were aged at accelerated conditions (at 100° C.) with octafluoro-2-butene gas:
Both the gas as well as the components exposed to the gas were analysed after 8 weeks of exposure.

The subject of the next data set is rats. In words: median lethal concentration (LC50) measured on rats. It counts as in vivo. Conditions: compared with C4N and C5K. The text has this: Specifically, the term “environmentally safe” also means that the dielectric-insulation or arc-extinction fluid has a relatively low toxicity level. More specifically, the median lethal dose (LC50; lethal concentration 50%; measured on rats) of the dielectric compound used in the environmentally safe dielectric-insulation or arc-extinction fluid is higher than 4′000 ppm, preferably higher than 5′000 ppm and more preferably higher than 6′000 ppm. Thus, the dielectric compound used according to the present invention ranges within the same toxicity class as previously mentioned C4N (having a much higher GWP than the dielectric compound used according to the present invention) and C5K (having a much higher boiling point than the dielectric compound used according to the present invention).

On to `FC(=C(F)C(F)(F)F)C(F)(F)F` [octafluoro-2-butene], for which the “decomposition of the gas” value in data set [1] is reported as “For none of the tests, a decomposition of the octafluoro-2-butene was determined”.

As to “linear octafluorobutene [linear octafluorobutenes]”, the toxicity class entry in the data set with rats is “ranges within the same toxicity class as for example heptafluoroisobutyronitrile (C4N) and 1,1,1,3,4,4,4-heptafluoro-3-(trifluoromethyl)-butan-2-one (C5K)”.
